Test results from PubChem BioAssay (NCI).
Values joined by “and” are separate entries in the source; they are usually repeats but may differ in a detail not shown here. Identical values can stand only once.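 Tested at 5 concentrations; 48 h exposure; 96-well plates; endpoints linearly interpolated, else capped at highest concentration. GI50: concentration for 50% inhibition of growth. At the TGI there is no net growth.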

Tests used:
Experiment in all cases: NCI-60 cell line screen, 48 h
UO-31 renal = tested on: UO-31 renal
A498 renal = tested on: A498 renal
HS 578T breast = tested on: HS 578T breast
MDA-MB-435 = tested on: MDA-MB-435
SF-539 CNS = tested on: SF-539 CNS
U251 CNS = tested on: U251 CNS
LOX IMVI melanoma = tested on: LOX IMVI melanoma
OVCAR-8 ovarian = tested on: OVCAR-8 ovarian
NCI-H460 lung = tested on: NCI-H460 lung
UACC-62 melanoma = tested on: UACC-62 melanoma

Row | Compound | GI50 (UO-31 renal) [µM] | TGI (UO-31 renal) | GI50 (A498 renal) [nM] | TGI (A498 renal) [µM] | GI50 (HS 578T breast) [nM] | TGI (HS 578T breast) | GI50 (MDA-MB-435) | TGI (MDA-MB-435) | GI50 (SF-539 CNS) | TGI (SF-539 CNS) | GI50 (U251 CNS) | TGI (U251 CNS) | GI50 (LOX IMVI melanoma) | TGI (LOX IMVI melanoma) | GI50 (OVCAR-8 ovarian) | TGI (OVCAR-8 ovarian) | GI50 (NCI-H460 lung) [nM] | TGI (NCI-H460 lung) | GI50 (UACC-62 melanoma) [µM] | TGI (UACC-62 melanoma)
1 | Cc1[nH]nc2c1N=C(c1ccccc1F)c1cc(C(N)=O)ccc1N2 | 4.31 | > 21.1 µM | 1080 | 6.02 | 511 | 7.25 µM | 7350 nM | > 25 µM | 621 nM | 3.54 µM | 710 nM | 10.2 µM | 2040 nM | 13.2 µM | 5.77 µM | > 25 µM | 3330 | > 25 µM | 4.11 | 9.17 µM
2 | CC(C)n1nc(-c2ccc3oc(N)nc3c2)c2c(N)ncnc21 | < 0.01 | 0.0402 µM and 0.0898 µM | < 10 | < 0.01 | < 10 | 0.0323 µM and 0.0517 µM | < 12.5 nM and 13.8 nM | 0.403 µM and 0.11 µM | 18.4 nM and 17.5 nM | 0.0902 µM and 0.113 µM | 22.9 nM and 25.5 nM | 10.2 µM and 2.44 µM | 12.7 nM and 17.4 nM | 1.33 µM and 1.64 µM | 0.0246 µM and 0.0218 µM | 1.24 µM and 0.506 µM | < 10 | 36.3 µM and 16.8 µM | < 0.01 | 0.0317 µM and 0.049 µM
3 | NCCOc1ccccc1/C=C1\c2ccccc2-c2ccc([N+](=O)[O-])cc21 | 1.3 | 2.61 µM | 1440 | 2.76 | 1720 | 3.79 µM | 1680 nM | 3.09 µM | 1790 nM | 3.18 µM | 1380 nM | 2.74 µM | 1330 nM | 2.66 µM | 1.53 µM | 3.33 µM | 488 | 1.66 µM | 1.54 | 2.92 µM
4 | C[C@]12CC[C@H]3[C@@H](C[C@@H]4SC(Nc5ccccc5)=N[C@@]45CC(O)CC[C@]35C)[C@@H]1CCC2O (stereo partly specified) | 1.67 | 3.05 µM | 2160 | 5.66 | 2160 | 17.2 µM | 2250 nM | 7.03 µM | 1190 nM | 2.62 µM | 1360 nM | 2.79 µM | 1330 nM | 2.77 µM | 3.43 µM | 14.9 µM | 1950 | 4.04 µM | 1.83 | 3.96 µM
5 | CCCCNC(=O)Oc1ccc(/C(=C(/C)Cc2ccc(OC)cc2)c2ccc(OCCN3CCCC3)cc2)cc1 | 1.65 | 3.22 µM | 4700 | 18.5 | 2110 | 4.81 µM | 1630 nM | 3.1 µM | 1750 nM | 3.32 µM | 1820 nM | 3.31 µM | 1670 nM | 3.2 µM | 2.04 µM | 4.38 µM | 1810 | 3.34 µM | 1.94 | 3.59 µM
6 | Cc1[nH]c(-c2nc3ccccc3[nH]2)c(C)c1C(=O)NC(C)C1CCCCC1 (stereo unspecified) | 11.9 | 25.6 µM | 7710 | 20.1 | 8880 | 30.9 µM | 2290 nM | 5.85 µM | 6700 nM | 19.6 µM | 5580 nM | 25.1 µM | 10000 nM | 29.7 µM | 16.5 µM | 39.5 µM | 14400 | 32 µM | 6.95 | 21.6 µM
7 | C/C(=N\N=C(\[Se])N(C)C)c1ccccn1 | – | 13.9 µM | – | 9.94 | – | 40.6 µM | – | 16.6 µM | – | 9.03 µM | – | 8.65 µM | – | 12.8 µM | – | 6.46 µM | – | 4.17 µM | – | 2.4 µM
8 | O=[n+]1c2ccccc2n([O-])c2cc(Cl)ccc21 | 3.52 | 15 µM | 1140 | 14.7 | 2950 | 21.7 µM | 11300 nM | 23.7 µM | 3500 nM | 11.2 µM | 2710 nM | 12 µM | 2830 nM | 11.9 µM | 3.5 µM | 15.4 µM | 2050 | 14.7 µM | 6.17 | 23.8 µM
9 | Cc1ccc(C2=C(c3ccccc3)C(c3ccccc3)Oc3ccc(C)cc32)cc1 (stereo unspecified) | 4.37 | 17 µM | 1560 | 5.32 | 2740 | 10.1 µM | 8500 nM | 26.8 µM | 6290 nM | 20 µM | 14800 nM | 28.5 µM | 13800 nM | 32 µM | 6.92 µM | 26.7 µM | 7100 | 39.9 µM | 10 | 22.8 µM
10 | CCc1cc2ncc(CN3CCN(c4ccc(C(=O)NC)nc4)CC3)cc2[nH]c1=O | 29.5 | > 100 µM | > 100000 | > 100 | 64000 | > 100 µM | 85800 nM | > 100 µM | 66900 nM | > 100 µM | > 100000 nM | > 100 µM | 60000 nM | > 100 µM | > 100 µM | > 100 µM | 33500 | > 100 µM | 39.2 | > 100 µM
11 | Cc1cc(N2CCCC2)nc(NCc2cc(Nc3ccnc4cc(Cl)ccc34)ccc2F)n1 | 1.21 | 2.66 µM | 1040 | 2.54 | 1510 | 3.91 µM | 1510 nM | 2.99 µM | 1550 nM | 3.11 µM | 1500 nM | 2.84 µM | 1120 nM | 2.48 µM | 1.69 µM | 3.27 µM | 1230 | 2.86 µM | – | –
12 | CC(=O)C1=C(C)N(C)C2(O)C=CC(=O)C3=C(O)c4ccccc4C(=O)C312 (stereo unspecified) | 27 | > 100 µM | 52.4 | 15.2 | 7230 | 40.5 µM | 2120 nM | 3.89 µM | 2760 nM | 6.55 µM | 14000 nM | 31.4 µM | – | – | 24 µM | > 100 µM | 10600 | 42 µM | 3.89 | 14 µM
